Assay results reported in patent US10233202B2, “Tenofovir monobenzyl ester phosphamide prodrug, preparation method and use thereof” (JIANGSU TASLY DIYI PHARMACEUTICAL CO., LTD., priority 2015, dated 2019).
Read-outs that look alike come from different tables or passages of the source. One block for each compound: values may come before it.

Assays:
in vitro = type: cell-based; conditions: human, HepG2.2.15 cells
Experimental: The concentration of HBV DNA in the HepG2.2.15 cell supernatant was detected through the real-time fluorescence quantitative PCR (qPCR) method to determine the anti-HBV activity of the compound in the HepG2.2.15 cells, and the effect of the testing compounds to the HepG2.2.15 cell activity was detected through Cell-titer Blue.
(§1) 8.1. Dilution of the compounds: the initial concentration of each compound in the in vitro anti-HBV activity test was 1 μM, with 3-fold serial dilution to 8 concentrations; the initial concentration of each compound in the cytotoxicity test was 100 μM, with 3-fold serial dilution to 8 concentrations; DMSO was used for the dilution of the compound mother liquor. The initial concentrations of the reference compound TDF for the anti-HBV activity test in vitro and the cytotoxicity test were all set at 0.2 μM, with 3-fold serial dilution to 8 concentrations.
8.3. Treatment of the cells in the cell viability test: the HepG2.2.15 cells were plated in the 96-well plate (4×10^4 cells/well), and cultured overnight at 37° C. in 5% CO2. On 2nd day, fresh culture solutions containing compounds of different concentrations were added to the culture wells. See Table 3 for the compound distribution. On 5th day, the used culture solutions in the culture wells were sucked and discarded, and fresh culture solutions containing compounds of different concentrations were added. On 8th day, Cell-titer Blue agent was added to each well, and the microplate reader was used to detect the fluorescence value of each well.
The cell viability percentage was calculated using the following formula: % cell viability=(fluorescence of sample−fluorescence of medium control)/(fluorescence of DMSO control−fluorescence of medium control)[…] 100%
(§2) 9.2 Test method: the test was carried out according to the procedure in example 1.

[1] = Stability in the human liver S9; type: in vitro ADME
Experimental: (§3) The following stability test were carried out according to the prior art, and the data of the stability test shown in the table were the residue percentages after the test compounds were incubated for different period of time under the test condition.

in vivo = experiment: in vivo; set-up: species or system ICR mice; conditions: mouse, 50 mg/kg
Experimental: 12 ICR mice (male, body weight 30±5 g, purchased from the Vital River animal center) were randomly divided into 4 groups, 3 for each group, fasted for 12 h before drug administration, with freely drinking during the fasting. […] The dose of the Tenofovir prodrug was 50 mg/kg, and the administration quantity was 10 mL/kg. The sample collection protocols: after administration by gastric gavage, each 0.5 mL of blood was taken from the orbit at 15 min, 30 min, 1 h, and 3 h; the mice were sacrificed, and the liver tissues were taken, washed cleanly, and weighed; normal saline was added to the liver with a proportion of 1:1, homogenized, and stored in the refrigerator at −40° C. for test. Treatment method for the plasma samples: 100 μL of the mouse plasma was taken and placed in a 1.5 mL plastic EP tube, 100 μL solution of internal standard (200 ng/ml theophylline) solution was added, 600 μL acetonitrile was added, vortex shaking for 2 min, centrifuged for 3 min (12500 rpm), the supernatant was taken, purged with nitrogen to dryness, and dissolved again with 100 μL of mobile phase (water:methanol=95:5), and the injection volume was 10 μL. Treatment method for the tissue samples: 200 μL of the mouse tissue samples were taken and placed in a 1.5 mL plastic EP tube, 100 μL solution of internal standard (200 ng/ml theophylline) solution was added, 600 μL acetonitrile was added, vortex shaking for 2 min, centrifuged for 3 min (12500 rpm), the supernatant was taken, purged with nitrogen to dryness, and dissolved again with 100 μL of mobile phase (water:methanol=95:5), and the injection volume was 20μL.

[2] = Stability in the human blood; type: in vitro ADME; conditions: 2 μM
Experimental: as §3

HBV = experiment: Cell based anti-HBV activity test, HBV DNA in HepG2.2.15 cell supernatant by qPCR; conditions: read-out: EC50
Experimental: as §1
8.2. Anti-HBV activity test in vitro: the HepG2.2.15 cells were plated in the 96-well plate (4×10^4 cells/well), and cultured overnight at 37° C. in 5% CO2. On second day, fresh culture solutions containing compounds of different concentrations were added to the culture wells. See Table 2 for the compound distribution. On 5th day, the used culture solutions in the culture wells were sucked and discarded, and fresh culture solutions containing compounds of different concentrations were added. On 8th day, the supernatant in the culture wells was collected for the extraction of HBV DNA in the supernatant. qPCR test was used to detect the concentration of HBV DNA content in the HepG2.2.15 supernatant.
8.4. Data analysis and calculation of the inhibition percentage and relative cell viability: The inhibition percentage was calculated using the following formula: % Inh.=[(HBV quantity of DMSO control−HBV quantity of sample)/HBV quantity of DMSO control]×100%
9.1 Drugs: the dilution method and concentrations of compound 3, the reference compound (CN201380030061.6, and the compound shown in claim 36 (abbreviation: compound 7), and the isomer thereof) were the same as those in example 1.
as §2

[3] = Stability in the simulated intestinal fluid; type: in vitro ADME; conditions: 10 μM
Experimental: as §3

[4] = Stability in the simulated gastric fluid; type: in vitro ADME; conditions: 20 μM
Experimental: as §3

[5] = Cell-titer Blue on 8th day, Table 3
[6] = HepG2.2.15 cells, HBV DNA in supernatant on 8th day, Table 3
[7] = Hepatitis B virus, HepG2.2.15, HepG2.2.15 cells, HBV DNA in supernatant on 8th day, Table 3

SMILES: C[C@H](Cn1cnc2c(N)ncnc21)OC[P@@](=O)(NCC(=O)OCc1ccccc1)OCc1ccccc1 (single isomer, unassigned) [Compound 5b]
CC50 (in vitro; [5]): > 100 µM

SMILES: O=c1ccc2ccc(O)cc2o1 [7-Hydroxycoumarin]
Remaining (T = 60 min) ([1]; human liver S9, 1 μM): 4%
half-life ([1]; human, s9): 6.6 min

concentration at 3 h (in vivo; male, ICR, Cliver tissue): 375 nM
concentration at 3 h (in vivo; male, ICR, Cplasma): 104 nM
SMILES: CC(C)OC(=O)[C@H](C)NP(=O)(CO[C@H](C)Cn1cnc2c(N)ncnc21)OCc1ccccc1 (some centres unmarked) [Compound 3]
selectivity ratio at 3 h (in vivo; male, ICR): 3.61

CLlint(s9) ([1]; human liver S9, 1 μM): 8.4 µL/min/mg
half-life at 1 μM ([1]; human liver S9, 1 μM): 82.2 min
Remaining (T = 60 min) ([1]; human liver S9, 1 μM): 60%
CLlint(s9) ([1]; human liver S9, 1 μM, scaled per kg): 29.7 µL/min/kg
SMILES: CCOc1ccc2ccc(=O)oc2c1 [7-Ethoxycumarin]

Cliver tissue (in vivo): 67.251 nmol/mL
Cplasma (in vivo): 0.075 nmol/mL
Liver tissue selectivity (Cliver tissue/Cplasma) (in vivo): 896
SMILES: C[C@H](Cn1cnc2c(N)ncnc21)OCP(=O)(O)O [TFV, Tenofovir]

% 0 min (residue percentage) ([2]; 0 min): 100%
% 10 min (residue percentage) ([2]; 10 min): 54.4%
% 30 min (residue percentage) ([2]; 30 min): 37.0%
% 60 min (residue percentage) ([2]; 60 min): 24.4%
% 120 min (residue percentage) ([2]; 120 min): 10.2%
SMILES: CC1CC(OC(=O)C(O)c2ccccc2)CC(C)(C)N1C (centres unmarked) [Eucatropine]

SMILES: C[C@H](Cn1cnc2c(N)ncnc21)OC[P@](=O)(NCC(=O)OCc1ccccc1)OCc1ccccc1 (single isomer, unassigned) [Compound 5a]
CC50 (in vitro; [5]): > 100 µM
EC50 (HBV; [6]): 214 nM
EC50 (HBV; [7]): 200 to 1000 nM

SMILES: CC(C)OC(=O)CN[P@@](=O)(CO[C@H](C)Cn1cnc2c(N)ncnc21)OCc1ccccc1 (single isomer, unassigned) [Compound 1a]
CC50 (in vitro; [5]): > 100 µM
EC50 (HBV; [7]): > 1000 nM

SMILES: COC(=O)CN[P@@](=O)(CO[C@H](C)Cn1cnc2c(N)ncnc21)OCc1ccccc1 [Compound 2a]
CC50 (in vitro; [5]): > 100 µM

SMILES: CC(C)OC(=O)CN[P@](=O)(CO[C@H](C)Cn1cnc2c(N)ncnc21)OCc1ccccc1 (single isomer, unassigned) [Compound 1b]
CC50 (in vitro; [5]): > 100 µM
EC50 (HBV; [6]): 290 nM
EC50 (HBV; [7]): 200 to 1000 nM

SMILES: COC(=O)CN[P@](=O)(CO[C@H](C)Cn1cnc2c(N)ncnc21)OCc1ccccc1 [Compound 2b]
CC50 (in vitro; [5]): > 100 µM
EC50 (HBV; [7]): > 1000 nM

SMILES: O=C(O)CCCc1ccc(N(CCCl)CCCl)cc1 [Chlorambucil]
% 0 min (residue percentage) ([3]; 0 min): 100%
% 60 min (residue percentage) ([3]; 60 min): 29.36%
% 120 min (residue percentage) ([3]; 120 min): 3.11%
% 360 min (residue percentage) ([3]; 360 min): 0.00%
% 1440 min (residue percentage) ([3]; 1440 min): 0.00%

SMILES: Cc1ccccc1CO[P@](=O)(CO[C@H](C)Cn1cnc2c(N)ncnc21)N[C@@H](C)C(=O)OC(C)C [Compound 7a]
CC50 (in vitro; comparative test, Table 4): > 100 µM
EC50 (HBV; Hepatitis B virus, HepG2.2.15, HepG2.2.15 cells, comparative test, Table 4): > 1000 nM

% 0 min (residue percentage) ([4]; 0 min): 100%
% 60 min (residue percentage) ([4]; 60 min): 24.34%
% 120 min (residue percentage) ([4]; 120 min): 9.41%
% 360 min (residue percentage) ([4]; 360 min): 1.58%
% 1440 min (residue percentage) ([4]; 1440 min): 0.31%
SMILES: COc1ccc2[nH]c([S+]([O-])Cc3ncc(C)c(OC)c3C)nc2c1 (centres unmarked) [Omeprazole]
